Measurements from US6291247A, “Methods of screening for factors that disrupt neurotrophin conformation and reduce neurotrophin biological activity” (priority 1996, dated 2001).
pIC50: −log10 of the molar value. “Also recorded” adds a separate entry of the source. Bridges are numbered along the chain shown (N, C = ends).

Key:
[1] = molecular target: T1, NGF (Mus musculus, UniProt P01139); assay: Circular dichroism of NGF; details: 100 μM, 22° C.
T1 construct: homodimer
Experimental: (§1) For conformation and dimer integrity studies, 0.1 nM ^125 I-NGF was incubated in the presence or absence of Zn^2+ in HKR buffer for 2 hours at 4° C. in a total volume of 0.1 ml. For crosslinking NGF […], 0.4 mM BS^3 was added to the mixture and incubated for 30 minutes at 25° C. The reaction was quenched with reducing SDS PAGE sample buffer, electrophoresed using a linear 15% acrylamide gel and autoradiographed. To assess the dimeric nature of NGF in the presence of Zn^2+, ^125 I-NGF was electrophoresed in a non-reducing SDS PAGE system as described, autoradiographed, and the labelled proteins excised from the gels and counted. For CD studies, NGF (50 μg/ml) was dissolved in 50 mM Tris-HCl buffer and spectra recorded using a computer controlled Jasco J-600 spectropolarimeter. Samples were acquired in the absence or presence of Zn^2+ (100 μM) at 22° C. in a 2 mm quartz cell averaged over eight scans. Modification of His residues by DEPC was carried out as previously described, where the molar excess of DEPC added and the extent of reaction was determined by evaluating the loss of binding activity of the modified product.

[2] = tested on: NGF dimer; assay: NGF dimer stability by non-reducing gel electrophoresis; set-up: species or system mouse
Experimental: as §1

[3] = tested on: p75^NTR; assay: 125I-NT-3 binding to p75NTR; details: 100 μM Zn2+, n = 3; 120 min
Experimental: Full length (1-118) mouse NGF purified by HPLC from 2.5S NGF (purity greater than 95%) was obtained from Cedarlane Laboratories (Toronto, Ont). The iodination of NGF was performed as previously described (Sutter, A, Riopelle, R. J., Harris-Warrick, R. M. & Shooter, E. M. Nerve growth factor receptors. J. Biol. Chem. 254, 5972-5982 (1979)). […] PC12 cells were grown in RPMI with 10% heat inactivated donor horse serum and 5% fetal calf serum. Each data point was set up in a single tube containing ^125 I-NGF (at the required concentration), 400,000 cells (for a final call concentration of 10^6 /ml), BDNF (at 40 nM for TrkA binding) and NGF (at 10 nM for non-specific binding) as required. The tubes were incubated for 2 hr at 4° C. and 100 μl aliquots (providing triplicate data points for each sample) were transferred to 400 μl microcentrifuges containing 200 μl of 10% glycerol in HKR. Tubes were centrifuged for 2 minutes at 5,000 rpm, the tip containing the cell pellet cut off and radioactivity bound to the cells was determined.
(§2) Human recombinant BDNF and human recombinant NT-3 were obtained from Alomone Laboratories (Israel). The iodination, crosslinking, and binding experiments using BDNF and NT-3 were performed using the methods described above for NGF. Neurite outgrowth assays were performed as described in the presence of 4.0 nM NT-3 or 8.0 nM BDNF.

[4] = tested on: DRG neurons; assay: NT-3-dependent neurite outgrowth of DRG neurons; assay type: cell-based, chick; details: n = 8
Experimental: Dissosiated cells enriched for sensory neurons were prepared from ED8 chick DRG as described (Dostaler, S. M. et al. Characterization of a distinctive motif of the low molecular weight neurotrophin receptor that modulates NGF-mediated neurite growth. Eur. J. Neurosci. 8, 870-879 (1996)). Neurons were seeded at a density of 800-1000 cells/well in Ham's F-12 containing 5% FCS and NGF at 10 pM into wells of Terasaki plates treated with polyysine. The cells were incubated with the indicated additives at 37° C. in a 5% CO2 atmosphere. The cells on the entire lower horizontal surface of the well were scored for neurite growth at 18-20 hours using an inverted microscope fitted with phase contrast optics. A neurite was scored if its caliber from the origin to terminal was constant and its length was equal to or greater than 1.5 cell body diameters. Neurite growth was corrected for background (no NGF).
as §2

[5] = tested on: p75^NTR /TrkA; assay: Receptor crosslinking of 125I-NGF with transition metal ions (receptor selectivity); assay type: binding
[6] = tested on: dorsal root ganglion (DRG) neurons; assay: NGF-dependent neurite growth of ED8 chick DRG neurons (FIG. 6, Terasaki plates); assay type: cell-based
Experimental: FIG. 6 is a graph showing the ability of R11 to inhibit the activity of NGF in vitro using a biological assay system. […] Dissociated cells enriched for sensory neurons were prepared from embryonic day 8 (ED8) chick dorsal root ganglion (DRG) as described (Sutter et al., J. Biol. Chem. 254: 5972-5982 (1979)). Neurons were seed into wells of Terasaki plates treated sequentially with poly-D-lysine and laminin at a density of 800-1000 cells/well in "synthetic" Dulbecco's modified Eagle medium (Bottenstein et al., Proc. Natl. Acad. Sci. USA 76: 514-517 (1979)) containing 1% fetal calf serum and NGF at […]. The cells were incubated with the additives indicated at 37° C. in a 5% CO2 atmosphere At 18-20 hours, the cells were fixed in 4% formaldehyde in phosphate-buffered saline and scored for neurite growth. The cells on the entire lower horizontal surface of the well were counted using an inverted microscope fitted with phase contrast optics. A neurite was scored if its caliber from origin to terminal was constant and its length was equal to or greater than 1.5 cell body diameters. Neurite growth was corrected for background (no NGF) growth in the presence and absence of peptide.
Such a profile is not typical of a competitive inhibitor. That is, a different dose response profile would be expected if R11 were simply competing with NGF for binding to a receptor. Neither of the less constrained synthetic Intermediates of R11, i.e., R11 (linear) or R11 (monocyclic), was as effective in blocking NGF-dependent neurite growth concentrations up to 200 μM.

[7] = tested on: kindling-induced seizures; assay: Kindling (seizure development) in rats; assay type: in vivo, Male Long-Evans hooded rats; details: intraventricular infusion; peptide 45 μM, anti-NGF 100 μg/day
Experimental: The effect of the present neurotrophin-derived peptides on kindling was determined as follows.
Male Long-Evans hooded rats (300-400 g) were used. The animals were housed individually, maintained on an ad lib feeding schedule and kept on a 12 h on/12 h off light cycle. The rats were anaestetised with 0.1 mL per 100 g body weight of 100 mg/mL ketamine hydrochloride (Roger/STB Inc., London, Canada) and 0.05 mL per 100 g body weight of 20 mg/mL xylocaine 2% hydrochloride (Astra, Mississauga, Canada), and then placed in a stereotaxic holder. […] Following implantation of the electrode, a cannula (Alzet brain infusion kit, Alza Corp.) was implanted in the lateral ventricle, 5 mm below the skull surface, at 0.6 mm caudal to bregma and 1.3 mm lateral to the midline. It was firmly attached to the skull with dental cement and anchored with tee stainless steel screws. […] Histological examination of lateral ventricle sections was done to confirm that the cannula was correctly placed. […] There were five groups of test animals, 5 animals per peptide test group, 10 animals in the negative control group and 12 animals in the positive control group. […]
Following a three-day recovery, the kindling stimulations were started. […] Progression of kindling was monitored behaviorally and electrophysiologically by recording the behavioral seizure stages and the duration and magnitude of afterdischarges.

[8] = molecular target: T1, NGF; assay: Cross-linking of NGF protomers in a cell-free system (Example 6); assay type: biochemical
From the text: That is, under denaturing conditions, NGF normally dissociates and electrophoreses as a monomer (FIG. 8, lane 1). In contrast, native NGF dimers that had been covalently cross-linked by BS^3 were unable to dissociate and were resolved from free monomer as a more slowly migrating band on the gel (FIG. 8, lane 2).

[9] = tested on: NT-3; details: Rashid et al. 1995; cited from earlier work

T1 sequence (P01139 122-239): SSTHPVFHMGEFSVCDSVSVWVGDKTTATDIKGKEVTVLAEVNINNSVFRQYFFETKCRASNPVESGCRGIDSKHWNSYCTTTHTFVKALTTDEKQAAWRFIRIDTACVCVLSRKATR
p75^NTR /TrkA, sequence (P01139 122-239): as above
p75^NTR /TrkA, sequence (P07174 30-425 partner): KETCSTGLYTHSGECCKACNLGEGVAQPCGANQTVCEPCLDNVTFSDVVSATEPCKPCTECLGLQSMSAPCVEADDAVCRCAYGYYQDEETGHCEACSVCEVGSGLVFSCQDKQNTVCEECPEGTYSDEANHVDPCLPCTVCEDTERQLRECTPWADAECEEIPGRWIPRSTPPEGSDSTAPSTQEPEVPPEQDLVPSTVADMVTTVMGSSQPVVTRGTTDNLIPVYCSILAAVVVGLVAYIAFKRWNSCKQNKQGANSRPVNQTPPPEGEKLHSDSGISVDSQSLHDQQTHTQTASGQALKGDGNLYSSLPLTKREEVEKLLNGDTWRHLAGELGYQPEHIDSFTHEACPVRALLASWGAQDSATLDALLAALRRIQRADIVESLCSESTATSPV
p75^NTR /TrkA, sequence (P35739 33-799 partner): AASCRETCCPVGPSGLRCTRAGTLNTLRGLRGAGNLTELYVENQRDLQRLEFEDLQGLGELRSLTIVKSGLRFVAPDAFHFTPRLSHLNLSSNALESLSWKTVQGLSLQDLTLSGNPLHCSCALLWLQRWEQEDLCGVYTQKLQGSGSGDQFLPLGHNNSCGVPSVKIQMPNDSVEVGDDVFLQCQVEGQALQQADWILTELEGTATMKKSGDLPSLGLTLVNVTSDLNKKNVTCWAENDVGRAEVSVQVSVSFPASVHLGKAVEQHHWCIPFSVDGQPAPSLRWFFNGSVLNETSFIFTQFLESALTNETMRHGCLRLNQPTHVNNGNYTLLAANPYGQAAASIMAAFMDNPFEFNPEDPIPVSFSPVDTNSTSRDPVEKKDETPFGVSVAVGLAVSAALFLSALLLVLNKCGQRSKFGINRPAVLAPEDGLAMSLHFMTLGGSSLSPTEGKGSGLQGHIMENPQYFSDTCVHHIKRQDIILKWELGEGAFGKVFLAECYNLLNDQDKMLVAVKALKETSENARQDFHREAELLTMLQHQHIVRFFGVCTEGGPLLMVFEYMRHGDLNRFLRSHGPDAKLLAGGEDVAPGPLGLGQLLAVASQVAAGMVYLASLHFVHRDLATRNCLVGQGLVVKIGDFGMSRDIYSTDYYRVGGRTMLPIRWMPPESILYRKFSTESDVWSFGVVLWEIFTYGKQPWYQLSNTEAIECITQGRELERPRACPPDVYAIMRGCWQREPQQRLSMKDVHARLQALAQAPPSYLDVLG

| Compound | Mean molar ellipticity of NGF by CD [1] | Percentage of NGF migrating as a dimer in non-reducing gel electrophoresis [2] | % Maximum p75NTR binding, 125I-NT-3 [3] [% Maximum binding] | Neurite Outgrowth, NT-3 (4.0 nM) ([4]; 30 μM Zn2+) | Neurite Outgrowth, NT-3 (4.0 nM) ([4]; 50 μM Zn2+) | Blocking of NGF binding to TrkA and p75NTR in receptor crosslinking [5] | Block of NGF-mediated neurite growth ([6]; 100 μM) [%] | pIC50 ([6]; ED8 chick DRG neurons, FIG. 6, read-out: IC50, inhibition of NGF-dependent neurite growth) | Block of NGF-mediated neurite growth ([6]; concentration similar to 200 μM) | Delay of the onset of kindling (number of stimulations to stage-5 seizures) [7] | NGF protomer cross-linking to BSA ([8]; 100 μM R11) | Cross-linking of NGF promoters by BS3 ([8]; 100 μM R11, cell-free) | Antagonism of NT-3 in vitro [9] |
| --- | --- | --- | --- | --- | --- | --- | --- | --- | --- | --- | --- | --- | --- |
| [Zn+2] [Zn^2+] | significant decrease | No change | 13.3 ± 9.5 | 79.9 ± 13.8 % Maximum process bearing neur | 18.4 ± 9.6 % Maximum process bearing neur | blocked binding to both receptors |  |  |  |  |  |  |  |
| NH2 -Cys-Gly-Ser-Glu-Val-Pro-Asn-Ser-Ala-Arg-Cys-Cys-Val-Cys-OH (H-CGSEVPNSARCCVC-OH; disulfide 1-14, 11-12) [R11, bicyclic peptide of NGF residues 68-58/108-110, two disulfide bonds] |  |  |  |  |  |  | 70 | 5.00 | virtually all | approximately equal to that of the anti-NGF IgG | increased dramatically | reduced almost to the point of elimination; also recorded: loss of NGF dimer | effective antagonist |
